In the supplement of paper PMC6045584:
± gives the standard deviation of the averaged measurements.

The test systems below were run with CS(=O)(=O)c1ccc(C(=O)Nc2ccc(Cl)c(-c3ccccn3)c2)c(Cl)c1 [VISMODEGIB] (assay: surviving fraction relative to DMSO-only wells; higher = less growth inhibition). Conditions: 5 nM; exposure time: 5 days.
Method in brief: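 At 250–500 cells per well in 384-well plates, log-phase tumour cell lines were seeded and, 24 hours on, exposed continuously for five days to inhibitors at 0.5, 1, 5, 10, 50, 100, 500 and 1000 nM. Viability readout was CellTiter-Glo luminescence, reported as surviving fraction normalised to the median of DMSO-only wells.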

Row | Test System | surviving fraction
1 | SCC36 HEADNECK | 1.07 ± 0.048
2 | OS25HAL BONE | 0.9983 ± 0.009
3 | HCC1806 BREAST | 1.18 ± 0.1
4 | HU09 BONE | 1.07 ± 0.14
5 | SG43 HEADNECK | 0.861 ± 0.075
6 | U2OS BONE | 1.09 ± 0.012
7 | HOSMNG BONE | 0.942 ± 0.095
8 | CASKI CERVIX | 0.958 ± 0.026
9 | SUM44 BREAST | 0.994 ± 0.017
10 | MDAMB231 BREAST | 0.95 ± 0.019
11 | CAL51 BREAST | 0.9295 ± 0.0062
12 | MDAMB436 BREAST | 0.873 ± 0.027
13 | HSSYII SYNOVIAL | 0.904 ± 0.078
14 | RDES SOFT TISSUE | 1.11 ± 0.22
15 | MDAMB157 BREAST | 1.02 ± 0.04
16 | CHLA90 AUTONOMIC GANGLIA | 0.962 ± 0.056
17 | CADOES1 SOFT TISSUE | 0.968 ± 0.1
18 | SG31 HEADNECK | 0.946 ± 0.088
19 | SCC47 HEADNECK | 0.992 ± 0.044
20 | S68 BREAST | 1.21 ± 0.25

Row | Test System | surviving fraction
21 | SNU475 LIVER | 0.967 ± 0.019
22 | 22RV1 PROSTATE | 0.962 ± 0.013
23 | SG32 HEADNECK | 1.07 ± 0.17
24 | SCC003 HEADNECK | 1.05 ± 0.17
25 | JURKAT HAEMATOPOIETIC AND LYMPHOID TISSUE | 1.06 ± 0.017
26 | HT1080 SOFT TISSUE | 1 ± 0.014
27 | CAL120 BREAST | 0.999 ± 0.012
28 | MCF7 BREAST | 0.874 ± 0.032
29 | MFM223 BREAST | 1.05 ± 0.058
30 | LNCAP PROSTATE | 1.01 ± 0.13
31 | PCI30 HEADNECK | 0.96 ± 0.04
32 | OSHN BONE | 1.05 ± 0.013
33 | SG28 HEADNECK | 0.979 ± 0.096
34 | HOS BONE | 1.012 ± 0.0066
35 | HUO3N1 BONE | 1.06 ± 0.061
36 | BT20 BREAST | 1.01 ± 0.062
37 | SJSA1 BONE | 1.04 ± 0.024
38 | JIMT1 BREAST | 0.9112 ± 0.0064
39 | HCC78 LUNG | 0.982 ± 0.14
40 | NY BONE | 0.977 ± 0.018

Row | Test System | surviving fraction
41 | NOS1 BONE | 1.1 ± 0.076
42 | SUM149.B1*.S BREAST | 0.981 ± 0.033
43 | 93VU HEADNECK | 1.06 ± 0.03
44 | LM7 BONE | 1.56 ± 1
45 | 143B BONE | 0.932 ± 0.1
46 | SUM159 BREAST | 1.14 ± 0.22
47 | SUM149 BREAST | 0.968 ± 0.053
48 | MDAMB361 BREAST | 0.829 ± 0.043
49 | SAOS2 BONE | 1.08 ± 0.059
50 | ASKA SYNOVIAL | 1.08 ± 0.086
51 | HCC1395 BREAST | 0.818 ± 0.031
52 | HCC1954 BREAST | 0.72 ± 0.015
53 | CME SYNOVIAL | 1.2 ± 0.27
54 | VCAP PROSTATE | 1.1 ± 0.18
55 | YAMATO SYNOVIAL | 1.34 ± 0.087
56 | HCC202 BREAST | 1.06 ± 0.2
57 | HELA CERVIX | 0.9757 ± 0.0083
58 | SG27 HEADNECK | 1 ± 0.062
59 | CAL72 BONE | 1.021 ± 0.0075

Same assay, conditions: 10 nM; exposure time: 5 days

Row | Test System | surviving fraction
60 | SCC36 HEADNECK | 1.05 ± 0.051
61 | OS25HAL BONE | 0.998 ± 0.017
62 | HCC1806 BREAST | 1.05 ± 0.083
63 | HU09 BONE | 1.08 ± 0.17
64 | SG43 HEADNECK | 0.972 ± 0.32
65 | U2OS BONE | 1.05 ± 0.013
66 | HOSMNG BONE | 0.906 ± 0.067
67 | CASKI CERVIX | 0.973 ± 0.046
68 | SUM44 BREAST | 0.934 ± 0.02
69 | MDAMB231 BREAST | 0.96 ± 0.02
70 | CAL51 BREAST | 0.931 ± 0.043
71 | MDAMB436 BREAST | 0.852 ± 0.071
72 | HSSYII SYNOVIAL | 0.906 ± 0.037
73 | RDES SOFT TISSUE | 1.16 ± 0.034
74 | MDAMB157 BREAST | 0.966 ± 0.06
75 | CHLA90 AUTONOMIC GANGLIA | 1.01 ± 0.062
76 | CADOES1 SOFT TISSUE | 0.914 ± 0.056
77 | SG31 HEADNECK | 1.11 ± 0.22
78 | SCC47 HEADNECK | 1.04 ± 0.07
79 | S68 BREAST | 1.04 ± 0.2

Row | Test System | surviving fraction
80 | SNU475 LIVER | 0.982 ± 0.0087
81 | 22RV1 PROSTATE | 0.974 ± 0.0072
82 | SG32 HEADNECK | 1.58 ± 0.69
83 | SCC003 HEADNECK | 1.06 ± 0.11
84 | JURKAT HAEMATOPOIETIC AND LYMPHOID TISSUE | 1.1 ± 0.019
85 | HT1080 SOFT TISSUE | 0.978 ± 0.03
86 | CAL120 BREAST | 1 ± 0.012
87 | MCF7 BREAST | 0.892 ± 0.097
88 | MFM223 BREAST | 1.14 ± 0.035
89 | LNCAP PROSTATE | 1.02 ± 0.21
90 | PCI30 HEADNECK | 0.947 ± 0.065
91 | OSHN BONE | 1.059 ± 0.0084
92 | SG28 HEADNECK | 0.921 ± 0.096
93 | HOS BONE | 1.03 ± 0.026
94 | HUO3N1 BONE | 1.03 ± 0.062
95 | BT20 BREAST | 1.02 ± 0.048
96 | SJSA1 BONE | 1.01 ± 0.045
97 | JIMT1 BREAST | 0.948 ± 0.041
98 | HCC78 LUNG | 1.11 ± 0.14
99 | NY BONE | 1.06 ± 0.027

Row | Test System | surviving fraction
100 | NOS1 BONE | 1.2 ± 0.065
101 | SUM149.B1*.S BREAST | 0.987 ± 0.039
102 | 93VU HEADNECK | 1.02 ± 0.14
103 | LM7 BONE | 1.03 ± 0.037
104 | 143B BONE | 0.993 ± 0.069
105 | SUM159 BREAST | 1.15 ± 0.22
106 | SUM149 BREAST | 0.877 ± 0.0066
107 | MDAMB361 BREAST | 0.784 ± 0.051
108 | SAOS2 BONE | 1.099 ± 0.0081
109 | ASKA SYNOVIAL | 1.11 ± 0.039
110 | HCC1395 BREAST | 0.83 ± 0.12
111 | HCC1954 BREAST | 0.786 ± 0.03
112 | CME SYNOVIAL | 1.3 ± 0.16
113 | VCAP PROSTATE | 1.13 ± 0.22
114 | YAMATO SYNOVIAL | 1.37 ± 0.067
115 | HCC202 BREAST | 1.04 ± 0.25
116 | HELA CERVIX | 1.02 ± 0.07
117 | SG27 HEADNECK | 0.962 ± 0.071
118 | CAL72 BONE | 0.9987 ± 0.0091
